Results: US5041567A, “Antibacterial monic acid derivatives” (Beecham Group plc, priority 1982, dated 1991)
In brackets after ≈: the same amount, converted by molar mass. Like-named read-outs stand apart in the source and are kept apart here.

How the values were obtained:
M. suipneumoniae NB12 = test: MIC against mycoplasma in vitro; assay type: cell-based; conditions: Mesomycoplasma hyopneumoniae, NB12, 144 h
M. suipneumoniae JF 435 = test: MIC against mycoplasma in vitro; assay type: cell-based; conditions: Mesomycoplasma hyopneumoniae, JF435, 144 h
M. suipneumoniae Str. 11 = test: MIC against mycoplasma in vitro; assay type: cell-based; conditions: Mesomycoplasma hyopneumoniae
M. suipneumoniae MS 16 = test: MIC against mycoplasma in vitro; assay type: cell-based; conditions: Mesomycoplasma hyopneumoniae, MS16, 144 h; M. suipneumoniae MS 16; 6 days, 37° C.; read-out: MIC
[1] = test system: M. suipneumoniae PW/C/210; test: MIC against mycoplasma in vitro; assay type: cell-based; conditions: Mesomycoplasma hyopneumoniae, 144 h
M. suipneumoniae UCD 1 = test: MIC against mycoplasma in vitro; assay type: cell-based; conditions: Mesomycoplasma hyopneumoniae, UCD1, 144 h
M. suipneumoniae TAM 6N = test: MIC against mycoplasma in vitro; assay type: cell-based; conditions: Mesomycoplasma hyopneumoniae, TAM6N, 144 h
[2] = test system: M. suipneumoniae ATCC 25095; test: MIC against mycoplasma in vitro; assay type: cell-based; conditions: Mesomycoplasma hyopneumoniae, ATCC25095, 144 h
[3] = test system: M. suipneumoniae NCTC 10110; test: MIC against mycoplasma in vitro; assay type: cell-based; conditions: Mesomycoplasma hyopneumoniae, NCTC10110, 144 h; M. suipneumoniae NCTC 10110; 6 days, 37° C.; read-out: MIC
M. hyorhinis ATCC 25021 = test: MIC against mycoplasma in vitro; assay type: cell-based; conditions: Mesomycoplasma hyorhinis, ATCC25021, 144 h
[4] = test system: M. bovigenitalium ATCC 14173; test: MIC against mycoplasma in vitro; assay type: cell-based; conditions: 144 h
M. dispar NCTC 10125 = test: MIC against mycoplasma in vitro; assay type: cell-based; conditions: 144 h
M. gallisepticum S6 = test: MIC against mycoplasma in vitro; assay type: cell-based; conditions: Mycoplasmoides gallisepticum, 144 h; M. gallisepticum S6; 6 days, 37° C.; read-out: MIC
E. coli NCTC 10418 [5] = test: MIC against human bacteria in vitro; assay type: cell-based; conditions: Escherichia coli, NCTC10418; E. coli NCTC 10418; agar with 5% chocolated horse blood, 18 hours, 37° C.; read-out: MIC
P. mirabilis 889 = test: MIC against human bacteria in vitro; assay type: cell-based; conditions: Proteus mirabilis; P. mirabilis 889; 5% chocolated horse blood agar, 18 hours; read-out: MIC
[6] = test system: Ps. aeruginosa NCTC 10662; test: MIC against human bacteria in vitro; assay type: cell-based; conditions: Pseudomonas aeruginosa, NCTC10662; Ps. aeruginosa NCTC 10662; 5% chocolated horse blood agar, 18 hours; read-out: MIC
[7] = test system: Haemophilus influenzae Wy21; test: MIC against human bacteria in vitro; assay type: cell-based; conditions: Haemophilus influenzae Wy21; 5% chocolated horse blood agar, 18 hours; read-out: MIC
[8] = test system: Corynebacterium xerosis 9755; test: MIC against human bacteria in vitro; assay type: cell-based; conditions: Corynebacterium xerosis 9755; 5% chocolated horse blood agar, 18 hours; read-out: MIC
Sarcina lutea 8340 = test: MIC against human bacteria in vitro; assay type: cell-based; conditions: Micrococcus luteus; Sarcina lutea 8340; 5% chocolated horse blood agar, 18 hours; read-out: MIC
Staph. aureus Oxford = test: MIC against human bacteria in vitro; assay type: cell-based; conditions: Staphylococcus aureus; Staph. aureus Oxford; 5% chocolated horse blood agar, 18 hours; read-out: MIC
Staph. aureus Russell = test: MIC against human bacteria in vitro; assay type: cell-based; conditions: Staphylococcus aureus; Staph. aureus Russell; 5% chocolated horse blood agar, 18 hours; read-out: MIC
Staph. aureus W2827 = test: MIC against human bacteria in vitro; assay type: cell-based; conditions: Staphylococcus aureus; Staph. aureus W2827; 5% chocolated horse blood agar, 18 hours; read-out: MIC
[9] = test system: Strep. pyogenes R80/421-A; test: MIC against human bacteria in vitro; assay type: cell-based; conditions: Streptococcus pyogenes; Strep. pyogenes R80/421-A; 5% chocolated horse blood agar, 18 hours; read-out: MIC
Strep. agalactiae 2788-B = test: MIC against human bacteria in vitro; assay type: cell-based; conditions: Streptococcus agalactiae; Strep. agalactiae 2788-B; 5% chocolated horse blood agar, 18 hours; read-out: MIC
E. coli NCTC 10418 [10] = test: MIC against veterinary bacteria in vitro; conditions: Escherichia coli, NCTC10418, 18 h
Procedure: (§1) The activity of the compounds of the Examples against various veterinarily important bacteria, was assayed in vitro using two-fold serial dilutions in Diagnostic Sensitivity Test Agar inoculated with 10^4 organisms.

E. coli E1 = test: MIC against veterinary bacteria in vitro; conditions: Escherichia coli, E1, 18 h
Procedure: as §1

S. dublin S7 = test: MIC against veterinary bacteria in vitro; conditions: Salmonella enterica, S7, 18 h
Procedure: as §1

Past. multocida PA1 = test: MIC against veterinary bacteria in vitro; conditions: Pasteurella multocida, PA1, 18 h
Procedure: as §1

Past. multocida PA2 = test: MIC against veterinary bacteria in vitro; conditions: Pasteurella multocida, PA2, 18 h
Procedure: as §1

[11] = test system: Staph. aureus 152 (pen. sens); test: MIC against veterinary bacteria in vitro; conditions: Staphylococcus aureus, 18 h
Procedure: as §1

[12] = test system: Strep. suis (group D) SPS11; test: MIC against veterinary bacteria in vitro; conditions: Streptococcus suis, 18 h
Procedure: as §1

Strep. agalactiae SPA1 = test: MIC against veterinary bacteria in vitro; conditions: Streptococcus agalactiae, SPA1, 18 h
Procedure: as §1

Past. haemolytica PA5 = test: MIC against veterinary bacteria in vitro; conditions: Mannheimia haemolytica, PA5, 18 h
Procedure: as §1

Row | SMILES | MIC (M. suipneumoniae NB12) | MIC (M. suipneumoniae MS 16) | MIC [3] | MIC [4] | MIC (M. gallisepticum S6) | MIC (E. coli NCTC 10418 [5]) | MIC (P. mirabilis 889) | MIC [6] | MIC [7] | MIC [8] | MIC (Sarcina lutea 8340) | MIC (Staph. aureus Oxford) | MIC (Staph. aureus Russell) | MIC (Staph. aureus W2827) | MIC [9] | MIC (Strep. agalactiae 2788-B) | MIC (E. coli NCTC 10418 [10]) | MIC (E. coli E1) | MIC (S. dublin S7) | MIC [11] | also measured
1 | C/C(=C\c1ncc(Cc2ccccc2)o1)C[C@@H]1OC[C@H](C[C@@H]2O[C@H]2[C@@H](C)[C@H](C)O)[C@@H](O)[C@H]1O [Example 27, 5-Benzyl-2-(1-normon-2-yl)oxazole A] | 5 µg/mL (≈ 10.9 µM) | 5 µg/mL (≈ 10.9 µM) | 10 µg/mL (≈ 21.9 µM) | 0.25 µg/mL (≈ 0.546 µM) | > 10 µg/mL | > 64 µg/mL | > 64 µg/mL | > 64 µg/mL | 2 µg/mL (≈ 4.37 µM) | > 64 µg/mL | > 64 µg/mL | 8 µg/mL (≈ 17.5 µM) | 16 µg/mL (≈ 35 µM) | 16 µg/mL (≈ 35 µM) | 4 µg/mL (≈ 8.74 µM) | 16 µg/mL (≈ 35 µM) | > 80 µg/mL | > 80 µg/mL | > 80 µg/mL | 10 µg/mL (≈ 21.9 µM) | MIC (M. suipneumoniae JF 435; M. suipneumoniae JF 435, 6 days, 37° C., read-out: MIC): 10 µg/mL (≈ 21.9 µM); MIC (M. suipneumoniae Str. 11; 144 h, M. suipneumoniae Str. 11, 6 days, 37° C., read-out: MIC): 5 µg/mL (≈ 10.9 µM); MIC ([1]; M. suipneumoniae PW/C/210, 6 days, 37° C., read-out: MIC): 5 µg/mL (≈ 10.9 µM); MIC (M. suipneumoniae UCD 1; M. suipneumoniae UCD 1, 6 days, 37° C., read-out: MIC): 10 µg/mL (≈ 21.9 µM); MIC (M. suipneumoniae TAM 6N; M. suipneumoniae TAM 6N, 6 days, 37° C., read-out: MIC): 10 µg/mL (≈ 21.9 µM); MIC ([2]; M. suipneumoniae ATCC 25095, 6 days, 37° C., read-out: MIC): 5 µg/mL (≈ 10.9 µM); MIC (M. hyorhinis ATCC 25021; M. hyorhinis ATCC 25021, 6 days, 37° C., read-out: MIC): 5 µg/mL (≈ 10.9 µM); MIC (M. dispar NCTC 10125): 2.5 µg/mL (≈ 5.46 µM); MIC (Past. multocida PA1): 20 µg/mL (≈ 43.7 µM); MIC (Past. multocida PA2): 5 µg/mL (≈ 10.9 µM); MIC [12]: > 80 µg/mL; MIC (Strep. agalactiae SPA1): 20 µg/mL (≈ 43.7 µM)
2 | C/C(=C\c1ncc(CCCCCCCCO)o1)C[C@@H]1OC[C@H](C[C@@H]2O[C@H]2[C@@H](C)[C@H](C)O)[C@@H](O)[C@H]1O [Example 19, 5-(8-Hydroxyoctyl)-2-(1-normon-2-yl) oxazole A] | 1 µg/mL (≈ 2.02 µM) | 0.5 µg/mL (≈ 1.01 µM) | 5 µg/mL (≈ 10.1 µM) | 0.1 µg/mL (≈ 0.202 µM) | 10 µg/mL (≈ 20.2 µM) | > 128 µg/mL | > 128 µg/mL | > 128 µg/mL | 4 µg/mL (≈ 8.07 µM) | 128 µg/mL (≈ 258 µM) | 128 µg/mL (≈ 258 µM) | 4 µg/mL (≈ 8.07 µM) | 4 µg/mL (≈ 8.07 µM) | 4 µg/mL (≈ 8.07 µM) | 2 µg/mL (≈ 4.04 µM) | 16 µg/mL (≈ 32.3 µM) | > 80 µg/mL | > 80 µg/mL | > 80 µg/mL | 1.25 µg/mL (≈ 2.52 µM) | MIC (M. suipneumoniae JF 435): 2.5 µg/mL (≈ 5.04 µM); MIC (M. suipneumoniae Str. 11; STR.11, 144 h): 1 µg/mL (≈ 2.02 µM); MIC [1]: 0.25 µg/mL (≈ 0.504 µM); MIC (M. suipneumoniae UCD 1): 2.5 µg/mL (≈ 5.04 µM); MIC (M. suipneumoniae TAM 6N): 2.5 µg/mL (≈ 5.04 µM); MIC [2]: 1 µg/mL (≈ 2.02 µM); MIC (M. hyorhinis ATCC 25021): 1 µg/mL (≈ 2.02 µM); MIC (M. dispar NCTC 10125; M. dispar NCTC 10125, 6 days, 37° C., read-out: MIC): 0.5 µg/mL (≈ 1.01 µM); MIC (Past. haemolytica PA5): > 80 µg/mL; MIC [12]: 80 µg/mL (≈ 161 µM); MIC (Strep. agalactiae SPA1): 10 µg/mL (≈ 20.2 µM)
